Reference: patent publication US7517998B2, “Non nucleoside reverse transcriptase inhibitors” (priority 2004, dated 2009)

Each molecule was assayed against T1, K103NNY181C mutant reverse transcriptase (Human immunodeficiency virus type 1 group M subtype B, UniProt P04585, K690N/Y768C) (assay: Reverse transcriptase enzymatic assay (PicoGreen), K103N/Y181C mutant RT). Conditions: IC50 mut (nM), mutant (K103N/Y181C) reverse transcriptase, enzymatic assay of Example 24.
T1 construct: mutations that occur in the reverse transcriptase segment of the pol gene
Type: biochemical, HIV-1
In short: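 HIV-1 RT (2.5 nM final) pre-incubated 15 min at room temperature with inhibitor, then reacted 50 min at 37 °C with poly rC 45 nM, dG15 4.5 nM, dGTP 3.6 μM in Tris/HCl pH 7.8, 1% DMSO. Final inhibitor 10 μM to 0.508 nM; EDTA-quenched, PicoGreen fluorescence read at 485/520 nm.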
With `CC(C)(C)c1ccc(-n2nnnc2SCC(=O)Nc2ccc(NC(=O)Cc3c(Cl)cccc3Cl)cc2Cl)c(Cl)c1` [Compound 7036] the IC50 was 712 nM. Work on `CC(C)(C)c1ccc(-n2nnnc2SCC(=O)Nc2ccc(NC(=O)C3CCCC3)cc2Cl)c(Cl)c1` [Compound 7021] yielded an IC50 of 262 nM. Molecule `CC(C)(C)c1ccc(-n2nnnc2SCC(=O)Nc2ccc(NC(=O)CCc3ccccc3)cc2Cl)c(Cl)c1` [Compound 7038] has an IC50 of 860 nM. For `CC(C)(C)c1ccc(-n2nnnc2SCC(=O)Nc2ccc(NC(=O)Cc3cccc([N+](=O)[O-])c3)cc2Cl)c(Cl)c1` [Compound 7017], the IC50 was 170 nM. `CC(C)(C)c1ccc(-n2nnnc2SCC(=O)Nc2ccc(NC(=O)Nc3ccc(C(=O)O)cc3)cc2Cl)c(Cl)c1` [Compound 7009] was tested, and the IC50 was 43 nM. In the case of `CC(C(=O)Nc1ccc(NC(=O)CSc2nnnn2-c2ccc(C(C)(C)C)cc2Cl)c(Cl)c1)c1ccccc1` (stereo not shown) [Compound 7044], the IC50 is reported as 335 nM.

Same assay, conditions: IC50 mut, K103N/Y181C mutant reverse transcriptase, enzymatic assay of Example 24
Work on `CC(C)(C#Cc1ccc(NC(=O)CSc2nnnn2-c2ccc(C(C)(C)C)cc2Cl)c(Cl)c1F)C(=O)O` [Compound 4122] yielded an IC50 of 15.5 nM. Work on `CN(C)S(=O)(=O)NC(=O)C(C)(C)C#Cc1ccc(NC(=O)CSc2nnnn2-c2ccc(C3CC3)cc2Cl)c(Cl)c1` [Compound 4185] yielded an IC50 of 55.5 nM. Work on `CC(C)Oc1ccc(Cl)c(-n2nnnc2SCC(=O)Nc2ccc(C#CC(C)(C)C(=O)O)cc2Cl)c1` [Compound 4187] yielded an IC50 of 61.5 nM. `CN(C)c1ccc(Cl)c(-n2nnnc2SCC(=O)Nc2ccc(C#CC(C)(C)C(=O)O)cc2Cl)c1` [Compound 4243] showed an IC50 of 140 nM. With `CC(C)(C#Cc1ccc(NC(=O)CSc2nnnn2-c2ccc(C3CC3)cc2Cl)c(Cl)c1F)OCCN1CCNCC1` [Compound 4176] the IC50 was 108 nM. For `CC(C)(C#Cc1ccc(NC(=O)CSc2nnnn2-c2cc(C(F)(F)F)ccc2Cl)c(Cl)c1)NC(=O)c1ncccn1` [Compound 4139], the IC50 was 20.5 nM. With `O=C(CSc1nnnn1-c1ccc(C2CC2)cc1Cl)Nc1ccc(C#CCCN2CCC(O)CC2)cc1Cl` [Compound 4134] the IC50 was 28.5 nM. For `CC(C)(N)C#Cc1ccc(NC(=O)CSc2nnnn2-c2cc(C(C)(C)C)cc(Br)c2Cl)c(Cl)c1` [Compound 4221], the IC50 was 108 nM. Work on `CN(C)CCCNC(=O)C(C)(C)C#Cc1ccc(NC(=O)CSc2nnnn2-c2ccc(CC3CC3)cc2Cl)c(Cl)c1` [Compound 4245] yielded an IC50 of 459 nM. `CC(NC(=O)COC(C)(C)C#Cc1ccc(NC(=O)CSc2nnnn2-c2ccc(C(C)(C)C)cc2Cl)c(Cl)c1)C(=O)O` (stereo not shown) [Compound 4053] was tested, and the IC50 was 25 nM. `CN(C)CCCNC(=O)C(C)(C)C#Cc1ccc(NC(=O)CSc2nnnn2-c2ccc(C3CC3)cc2Cl)c(Cl)c1` [Compound 4145] was tested, and the IC50 was 48 nM. `CC(C)(C#Cc1ccc(NC(=O)CSc2nnnn2-c2ccc(CC3CC3)cc2Cl)c(Cl)c1)OCCN1CCCC1` [Compound 4246] showed an IC50 of 212 nM. With `CC(C)(C#Cc1ccc(NC(=O)CSc2nnnn2-c2ccc(C3CC3)cc2Cl)c(Cl)c1)NCc1ccccc1O` [Compound 4130] the IC50 was 43 nM. `CC(C)(C#Cc1ccc(NC(=O)CSc2nnnn2-c2cc(C(F)(F)F)ccc2Cl)c(Cl)c1F)OCCOc1ccncc1` [Compound 4166] was tested, and the IC50 was 126 nM. With `CC(C)(C#Cc1ccc(NC(=O)CSc2nnnn2-c2ccc(C3CC3)cc2Cl)c(Cl)c1)OCCN1CCC1` [Compound 4119] the IC50 was 121 nM. In the case of `CC(C)(C#Cc1ccc(NC(=O)CSc2nnnn2-c2ccc(C3CC3)cc2Cl)c(Cl)c1)NC(=O)C1(C(=O)O)CC1` [Compound 4233], the IC50 is reported as 9.35 nM. `CC(C)(C#Cc1ccc(NC(=O)CSc2nnnn2-c2ccc(C3CC3)cc2Cl)c(Cl)c1)NC(=O)CN1CCNCC1` [Compound 4124] gave an IC50 of 27 nM. In the case of `CC(C)(C#Cc1ccc(NC(=O)CSc2nnnn2-c2cc(C(C)(C)C)ccc2Cl)c(Cl)c1)NC(=O)CN1CCC(C(=O)O)CC1` [Compound 4204], the IC50 is reported as 35 nM. With `CC(C)(N)C#Cc1ccc(NC(=O)CSc2nnnn2-c2cc(C(F)(F)F)ccc2Cl)c(Cl)c1` [Compound 4137] the IC50 was 88 nM. `Cc1cc(Cl)c(-n2nnnc2SCC(=O)Nc2ccc(C#CC(C)(C)O)cc2Cl)cc1C(F)(F)F` [Compound 4060] was tested, and the IC50 was 42 nM. Work on `CC(C)(C#Cc1ccc(NC(=O)CSc2nnnn2-c2ccc(C3CC3)cc2Cl)c(Cl)c1F)OCCN1CCC(F)(F)C1` [Compound 4217] yielded an IC50 of 90.5 nM. `CC(C)(C#Cc1ccc(NC(=O)CSc2nnnn2-c2cc(C3CC3)ccc2Cl)c(Cl)c1F)OCCN1CCNCC1` [Compound 4209] was tested, and the IC50 was 46 nM. `CC(C)(C#Cc1ccc(NC(=O)CSc2nnnn2-c2ccc(C3CC3)cc2Cl)c(Cl)c1)NC(=O)C1CC1` [Compound 4079] showed an IC50 of 6.8 nM. Molecule `CC(C)(C#Cc1ccc(NC(=O)CSc2nnnn2-c2ccc(C3CC3)cc2Cl)c(Cl)c1)NC(=O)OC(C)(C)C` [Compound 4069] has an IC50 of 112 nM. `Cc1cc(C(F)(F)F)cc(-n2nnnc2SCC(=O)Nc2ccc(C#CC(C)(C)O)cc2Cl)c1Cl` [Compound 4030] was tested, and the IC50 was 21 nM. `Cc1cc(C)c(-n2nnnc2SCC(=O)Nc2ccc(C#CC(C)(C)O)cc2Cl)c(Cl)c1` [Compound 4007] showed an IC50 of 38 nM. `CC(C)(C#Cc1ccc(NC(=O)CSc2nnnn2-c2ccc(C3CC3)cc2Cl)c(Cl)c1)NC(=O)CC(=O)O` [Compound 4232] showed an IC50 of 10 nM. Work on `CC(C)(C#Cc1ccc(NC(=O)CSc2nnnn2-c2ccc(C3CC3)cc2Cl)c(Cl)c1)NCC1CC1` [Compound 4128] yielded an IC50 of 27 nM. Molecule `CC(C)(C)c1ccc(-n2nnnc2SCC(=O)Nc2ccc(C#Cc3ccccc3)cc2Cl)c(Cl)c1` [Compound 4002] has an IC50 of 268 nM. `CC(C)(C#Cc1ccc(NC(=O)CSc2nnnn2-c2ccc(C(C)(C)C)cc2Cl)c(Cl)c1)OCC(=O)Nc1ccon1` [Compound 4054] showed an IC50 of 35 nM. For `O=C(CSc1nnnn1-c1ccc(C2CC2)cc1Cl)Nc1ccc(C#CC(O)(C(F)(F)F)C(F)(F)F)cc1Cl` [Compound 4249], the IC50 was 203 nM. `CC(C)(C#Cc1ccc(NC(=O)CSc2nnnn2-c2ccc(C3CC3)cc2Cl)c(Cl)c1)NS(C)(=O)=O` [Compound 4076] showed an IC50 of 17.5 nM. In the case of `CC(C)(C)c1ccc(-n2nnnc2SCC(=O)Nc2ccc(C#CCO)cc2Cl)c(Cl)c1` [Compound 4006], the IC50 is reported as 11 nM.

Same assay, conditions: IC50 mut, mutant reverse transcriptase, enzymatic assay of Example 24
`CC(C)(C)c1ccc(-n2nnnc2SCC(=O)Nc2ccc(-c3ccc(OCCN4CCC(O)CC4)cc3)cc2Cl)c(Cl)c1` [Compound 2031] showed an IC50 of 34 nM. With `CC(C)(C)c1ccc(-n2nnnc2SCC(=O)Nc2ccc(OCC(=O)NCCc3ccc(O)cc3)cc2Cl)c(Cl)c1` [Compound 5016] the IC50 was 116 nM. `Cc1ccc(-c2c(OCC(=O)Nc3ccc(C#CC(C)(C)C(=O)O)cc3Cl)n[nH]c2C)c(Cl)c1` [Compound 1015] gave an IC50 of 48 nM. `CC(C)(C)c1ccc(-n2nnnc2SCC(=O)Nc2ccc(-c3cccc(C(=O)O)c3)cc2Cl)c(Cl)c1` [Compound 3022] showed an IC50 of 50 nM. Molecule `CN1CCN(C(=O)c2ccc(NC(=O)CSc3nnnn3-c3ccc(C(C)(C)C)cc3Cl)c(Cl)c2)CC1` [Compound 6004] has an IC50 of 398 nM. With `CC(C)(C)c1ccc(-n2nnnc2SCC(=O)Nc2ccc(OCC(=O)NCCN3CCOCC3)cc2Cl)c(Cl)c1` [Compound 5007] the IC50 was 244 nM. Molecule `CC(C)(C)c1ccc(-n2nnnc2SCC(=O)Nc2ccc(OCC(=O)NCc3ccco3)cc2Cl)c(Cl)c1` [Compound 5002] has an IC50 of 137 nM. `O=C(CSc1nnnn1-c1ccc(C2CC2)cc1Cl)Nc1ccc(C(=O)NCc2cccc[n+]2[O-])cc1Cl` [Compound 6038] was tested, and the IC50 was 64.5 nM. Molecule `COC(=O)/C=C/c1ccc(NC(=O)CSc2nnnn2-c2ccc(C)cc2Cl)c(Cl)c1` [Compound 3005] has an IC50 of 305 nM. Work on `CC(C)(C)c1ccc(-n2nnnc2SCC(=O)Nc2ccc(OCC(=O)NCc3ccc(C(=O)O)cc3)cc2Cl)c(Cl)c1` [Compound 5027] yielded an IC50 of 51 nM. `CC(C)(C#Cc1ccc(NC(=O)CSc2nnc(C(F)(F)F)n2-c2ccc(C3CC3)cc2Cl)c(Cl)c1)C(=O)O` [Compound 1017] showed an IC50 of 72 nM. `CC(C)(C)c1cc(Cl)c(-n2nnnc2SCC(=O)Nc2ccc(-c3ccc(OCC(=O)O)cc3)cc2Cl)c(Cl)c1` [Compound 2018] was tested, and the IC50 was 12 nM. Work on `CC(C)(C)c1ccc(-n2nnnc2SCC(=O)Nc2ccc(-c3ccc(CCC(=O)O)cc3)cc2Cl)c(Cl)c1` [Compound 2028] yielded an IC50 of 9.3 nM. `CC(C)(C)c1ccc(-n2nnnc2SCC(=O)Nc2ccc(C(=O)Nc3ccncc3)cc2Cl)c(Cl)c1` [Compound 6029] was tested, and the IC50 was 22 nM. Work on `COC(=O)C1CCN(CCOc2ccc(NC(=O)CSc3nnnn3-c3ccc(C(C)(C)C)cc3Cl)c(Cl)c2)CC1` [Compound 3035] yielded an IC50 of 355 nM. `CN(CCc1cc[n+]([O-])cc1)C(=O)COc1ccc(NC(=O)CSc2nnnn2-c2ccc(C3CC3)cc2Cl)c(Cl)c1` [Compound 5041] was tested, and the IC50 was 132 nM. Work on `Cc1nnc(SCC(=O)Nc2ccc(-c3ccc(OCCN4CCCCC4)cc3)cc2Cl)n1-c1ccc(C2CC2)cc1Cl` [Compound 1013] yielded an IC50 of 75 nM. `Cc1ccc(-n2nnnc2SCC(=O)Nc2ccc(-c3cscn3)cc2Cl)c(Cl)c1` [Compound 3014] showed an IC50 of 142 nM. With `Cc1cc(-c2ccc(NC(=O)CSc3nnnn3-c3ccc(C(C)(C)C)cc3Cl)c(Cl)c2)ccc1OCC(=O)O` [Compound 3010] the IC50 was 33 nM. In the case of `CC(C)(C)c1ccc(-n2nnnc2SCC(=O)Nc2ccc(C(=O)NCCc3ccncc3)cc2Cl)c(Cl)c1` [Compound 6023], the IC50 is reported as 22 nM. In the case of `CC(C)(C)c1ccc(-n2nnnc2SCC(=O)Nc2ccc(OCC(=O)Nc3ccc(N4CCOCC4)cc3)cc2Cl)c(Cl)c1` [Compound 5005], the IC50 is reported as 216 nM. Molecule `CC(C)(C)c1ccc(-n2nnnc2SCC(=O)Nc2ccc(S(=O)(=O)NCCO)cc2Cl)c(Cl)c1` [Compound 3027] has an IC50 of 81 nM. For `CC(C)(C)c1ccc(-n2nnnc2SCC(=O)Nc2ccc(C(=O)NCCc3ccc(O)cc3)cc2Cl)c(Cl)c1` [Compound 6017], the IC50 was 33 nM. `O=C(CSc1nnnn1-c1ccc(C2CC2)cc1Cl)Nc1ccc(-c2ccc(OCCN3CCS(=O)(=O)CC3)cc2)c(F)c1Cl` [Compound 2059] was tested, and the IC50 was 13 nM. With `Cc1ccc(-n2nnnc2SCC(=O)Nc2ccc(-c3cocn3)cc2Cl)c(Cl)c1` [Compound 3016] the IC50 was 359 nM.
